row,SMILES,melting point
1,CCNC(=O)N1CCN(c2ccc(NC(=O)c3cc(=O)c4cc(F)cc(N5CCN(C)CC5)c4o3)cc2)CC1,236 to 238 °C
2,CCN1CCN(Cc2nc3sc4c(c3c(=O)n2-c2ccccc2Cl)CCCC4)CC1,140 to 142 °C
3,CCOC(=O)c1c(/C=C/c2nccn2C)nc2cc(OC)c(OC)cc2c1-c1ccc(OC)c(OC)c1,206 to 208 °C
4,O=C1c2ccccc2C(=O)N1CCc1ccc(CCC2CCCCC2)cc1,135 to 138 °C
5,O=C1NCCc2ccc(OCCCCN3CCN(c4cccc5ccc(F)cc45)CC3)nc2N1,234 °C
6,O=c1[nH]c2cc3c(cc2nc1-c1ccccc1)OC(F)(F)O3,291 to 292 °C
7,O=C(O)CN1C(=O)C(=Cc2ccc([N+](=O)[O-])cc2)SC1=S,274 to 277 °C
8,CCCCNC(=O)n1c(=S)[nH]c2ccccc21,179 to 180 °C
9,Cc1cc(C)c2c(n1)[nH]c(=O)c1ccccc12,276 to 278 °C
10,CCCCc1nn(-c2cc([N+](=O)[O-])ccc2Br)c(=O)n1Cc1ccc(-c2ccccc2S(=O)(=O)NC(C)(C)C)cc1,126 to 128 °C
11,COC(=O)C1=C(CCc2ccccc2)NC(CC(=O)N2CCN(CC(=O)N3CCCC3)CC2)=C(C(=O)OC)C1c1c(Cl)cccc1Cl (stereo not given),180 to 184 °C
12,COC(=O)c1c(C)nc(C)c(C(=O)Cl)c1-c1ccccc1[N+](=O)[O-],96 to 98 °C
13,O=C(O)c1ccc(COc2ccc3cc(-c4ccc(-c5ccccc5)n4Cc4ccc(C(F)(F)F)cc4)ccc3c2)c(C(=O)O)c1,250 to 252 °C
14,CN1CCC(c2cccc3ccc(O)cc23)CC1,144 to 146 °C
15,Cc1ccc(-c2cc(N3CCCCC3)c(C#N)c3c2-c2ccccc2C3)cc1,162 to 164 °C
16,CCOC(=O)c1ccc(-c2cnc3c(c2)NC(=O)CN3)cc1,> 200 °C
17,CCOc1cc(CCl)nc(OCC)n1,38 to 39 °C
18,CCOC(=O)NC(=S)CNc1ccc(C(=O)OC)c(S(=O)(=O)NC(C)(C)C)c1,110 °C
19,Cc1nnc2n1-c1ccc(Cl)cc1C(=S)NC2,298 to 303 °C
20,COc1ccc(Oc2ccc3ccc(NC(=O)c4ccccc4)nc3n2)cc1,171 °C
21,CC#CC(O)(c1ccc(C)cc1C)c1ccc(C)cc1C,64 to 65 °C
22,Cc1nc2c(Cl)c(NC(=O)c3ccc(-c4ccccc4)cc3)ccc2s1,168 to 169 °C
23,COC(=O)CCCCCOc1ccc(NC(=O)OCCOC(=O)Nc2ccc(OCCCCCC(=O)OC)cc2)cc1,118 to 120 °C
24,COc1cc2nc(N)nc(-c3c(Br)cc(C)cc3Br)c2cc1OC,235 to 237 °C
25,CCCCCCCCCCCCCCCCOC(=O)c1cnc(C(=O)OCCCCCCCCCCCCCCCC)c2ccccc12,80.7 to 81.4 °C

row,SMILES,melting point
1,CN1C(=O)C2C3CCC(C3)C2(c2ccc(N)cc2)C1=O (stereo not given),131 to 133 °C
2,CCOC(=O)C1=C(C)NC(C=NO)=C(C(=O)OCC)C1c1ccccc1Cl (stereo not given),136 to 137 °C
3,CCn1nc(C(F)(F)F)c(CS(=O)(=O)C2=NOC(C)(CCl)C2)c1C#N (stereo not given),76 to 78 °C
4,CCOC(=O)CCc1ccc(C2COc3c(C)c(C)c(NC(=O)CC(C)(C)C)c(C)c32)cc1 (stereo not given),103 to 105 °C
5,CCc1cc(C2(c3cccc(-c4cccnc4F)c3)N=C(N)N3CCCN=C32)cc(CC)n1 (stereo not given),174 to 176 °C
6,CSc1ccc2oc3cc(F)ccc3c(=O)c2c1,113 to 116 °C
7,CCCCCCCCCCCCCCC(=O)C(=O)N[C@H](C(=O)NCC(=O)O)C(C)C,87 to 89 °C
8,COc1nc(OC)nc(-n2cnc(SC)n2)n1,160 °C
9,O=C(O)c1ccccc1C(=O)c1ccc(N2CCOCC2)cc1O,184 to 187 °C
10,Oc1ncncc1Oc1ccccc1,186 to 188 °C
11,CNC(=O)N1CC(Oc2ccc(C(N)=O)cc2)C1,208 to 210 °C
12,CCCc1c2occc(=O)c2cc2c(=O)c(-c3ccc(C(=O)O)cc3)c(C(=O)O)oc12,250 °C
13,CCOC(=O)C1=Cc2cc(C)cc(Br)c2NC1C(F)(F)F (stereo not given),122 to 124 °C
14,Cn1c(C(F)(F)F)cc(=O)n(-c2cc(OC(=O)CCl)c(Cl)cc2F)c1=O,89 to 92 °C
15,CC(C)CNc1c2c(nc3cn[nH]c13)CCCC2,124 to 127 °C
16,O=C(O)CN(CCc1ccccc1)C(=O)CCc1nc2c(F)c(F)cc(F)c2s1,139 to 140 °C
17,COc1ccc(-c2nc(C(=O)N3CCOCC3)sc2-c2ccc(OC)cc2)cc1,118 to 122 °C
18,Cc1cc(C(=O)c2ccc(Cl)cc2)ccc1[N+](=O)[O-],105 to 108 °C
19,Cc1ccc(CC(=S)N[C@@H](Cc2ccccc2)C(=O)O)cc1,92 to 93 °C
20,Cc1ccc(S(=O)(=O)c2ccc3c(c2)C(O)C(Br)C(C)(C)O3)cc1 (stereo not given),141 to 142 °C
21,O=P(c1ccccc1)(c1ccccc1)c1ccccc1C1OCCO1,161 to 162 °C
22,O=C(c1ccc(F)cc1)C1CCN(CC(O)c2cc(Br)no2)CC1 (stereo not given),132 to 135 °C
23,CCCCOc1c2ccccc2nc2c1c(C)nn2-c1ccccn1,59 to 61 °C
24,N#CN=C(Nc1cccnc1)NC1(c2cccc(Cl)c2)CCC1,102 to 104 °C
25,Cc1c(C)c(C(CO)c2ccc(C(C)C)cc2)c(O)c(C)c1Br (stereo not given),96 to 97 °C

row,SMILES,melting point
1,Oc1ccc2c(c1)OCC1c3ccccc3OC21 (stereo not given),148 to 152 °C
2,N#CSc1nc(I)ncc1Cl,183 to 186 °C
3,CCOC(=O)C1CCC(c2ccc(OCC(=O)O)c(Cl)c2Cl)=CC1=O (stereo not given),193 to 195 °C
4,O=c1[nH]c2ccccc2n1CCCCCCCl,80 to 84 °C
5,CN1CCNCCNCCNCCNCC1,71 to 72.5 °C
6,O=C1CSC=C2c3ccccc3C=CN12,104 to 106 °C
7,OCCON=Cc1ccc2ccccc2n1,128 °C
8,OC(c1ccc(F)cc1)c1ccc2noc(-c3cccc(Cl)c3)c2c1 (stereo not given),171 °C
9,COCc1c(C(O)c2ccccc2)ncc2c1c1cc(OCc3ccccc3)ccc1n2S(=O)(=O)c1ccc(C)cc1 (stereo not given),146 to 147 °C
10,CCOC(=O)CC/C=C(\C)c1sccc1Br,62 to 64 °C
11,CS(=O)(=O)c1ccc(-c2cc(C(F)(F)F)nn2-c2ccc(C#N)cc2)cc1F,152 to 153 °C
12,Cc1ccc(S(=O)(=O)NCc2ccccc2)cc1,115 to 116 °C
13,CC(=O)c1cc(Nc2nc(N)nc(N)n2)cc(C(C)=O)c1,271 to 272 °C
14,O=S(=O)(O)CCCNC1CCCCCC1,341 to 343 °C
15,Cc1cc(C)c(Nc2nc(C)ccc2S(=O)(=O)c2ccc(OCc3c(C)cccc3C)cc2)c(C)c1,136 to 138 °C
16,CCCOc1cc(N(CC)CC)ccc1-c1nc2cc3c(cc2[nH]1)C(C)(C)CC(=O)N3,147 to 148 °C
17,CCOC(=O)C(C#N)=NOC(=O)OC,69 to 71 °C
18,CCn1c(C)nc2nc(-c3ccccc3)c(-c3ccccc3)nc21,178 to 180 °C
19,CN1C(=O)C(CC(NC(=O)c2ccc(Cl)cc2)C(=O)O)c2ccccc21 (stereo not given),115 to 120 °C
20,CC1(C)C(=O)Nc2ccc(C3=NNC(=O)CC3)cc21,> 300 °C
21,COc1ccc(-c2cnc(N3Cc4c([nH]c5ccccc5c4=O)C3C3Cc4ccccc4O3)nc2)cc1 (stereo not given),301 to 302 °C
22,N#CCCCCCCCCCCCCC#N,< 40 °C
23,Cc1ncc([N+](=O)[O-])n1CCN=[N+]=[N-],51 to 51.5 °C
24,c1ccc(-c2nc3cc4oc(-c5ccccc5)nc4cc3o2)cc1,319 to 323 °C
25,Cc1cc(Cn2cncn2)cc2c1Cc1c(-c3ccsc3)n[nH]c1-2,255 to 257 °C

row,SMILES,melting point
1,Cn1cnc(COc2nn3c(-c4cc(CO)on4)nnc3c3ccccc23)n1,275 to 276 °C
2,CC1(C)Oc2cc(Br)sc2C(N2CCCCC2=O)C1O (stereo not given),200 to 202 °C
3,CC(C)n1cc(I)c2c(Cl)ncnc21,116 to 118 °C
4,CN1C(=O)[C@H](NC(=O)CCc2ccc(Cl)cc2Cl)N=C(c2ccccc2)c2cc(N)ccc21,179 to 180 °C
5,CCCn1ncc2c(=O)[nH]c(-c3cc(S(=O)(=O)Cl)ccc3OCC)nc21,177 to 180 °C
6,Cc1cnc2nc(C(F)(F)F)[nH]c(=O)c2c1,270 to 272 °C
7,O=C1c2ccccc2C(=O)N1CCCCN1CCC(=C(c2ccccc2)c2ccccc2)CC1,102 to 103 °C
8,C=C1NC(Nc2ccccc2)=C(C(=O)OCC)C(NN)=C1C#N,174 to 176 °C
9,COC(=O)CCCCCCC1=CCc2cc(OC)ccc21,30 to 31.5 °C
10,CCOC(=O)C1(C(=O)OCC)Oc2c(ccc(OC)c2Cl)C1O (stereo not given),116 to 117 °C
11,O=C1N(Cc2ccc(Cl)s2)c2ccc(F)cc2C12COc1cc3c(cc12)OCO3 (stereo not given),142 to 144 °C
12,CCn1cc(C(=O)NCc2ccc(Cl)cc2)c(=O)c2cc(CN(C)C[C@@H](O)c3ccco3)sc21,123 to 127 °C
13,CN(CCOc1ccc(N)cc1)c1ccncc1,141 to 142 °C
14,O=C1Nc2ccccc2S(=O)(=O)c2cc(C(F)(F)F)ccc21,240 to 241 °C
15,Cc1ccc(N=c2scc(-c3ccc(Cl)c(S(=O)(=O)N(C)C)c3)n2C)c(C)c1,152 to 154 °C
16,Cc1c(F)cc(C(=O)NC2CC2)cc1-n1cc(Br)nc(NC2(c3ccccc3OCCN(C)C(=O)OCc3ccccc3)CC2)c1=O,116 to 120 °C
17,COC(=O)c1ccccc1S(=O)(=O)NC(=O)Nc1nc(CSc2ccccn2)cc(OC)n1,175 to 181 °C
18,c1ccc2c(NC3CCC(Nc4nccc5ccccc45)CC3)nccc2c1 (stereo not given),278 to 280 °C
19,CC1(C)c2ccccc2S(=O)(=O)N1CCCCl,107 °C
20,CCn1cc(CN(C(=O)C2CCCc3c(O)cccc32)c2ccc(C(C)C)nc2)cn1 (stereo not given),173 °C
21,CCCCC(=NNC(=O)OCC)c1ccncc1,102 °C
22,COC(=O)CNC(=O)c1cc(Cl)nc(Cl)c1,140 to 141 °C
23,O=c1c2cccnc2c(-c2cccc([N+](=O)[O-])c2)nn1Cc1ccncc1,167 to 168 °C
24,COC(=O)C(COC(C)=O)C(=O)OC(C)(C)C (stereo not given),61 to 62 °C
25,CCCCCCCNC(=O)Nc1ccc(N(C)C)cc1C(=O)NCC1CCN(C(c2ccc(Cl)cc2)c2ccc(Cl)cc2)CC1,216 °C

# From a melting point compilation (Tetko et al.; mined from patent text by program, amines drawn as free bases though some values may be those of a salt)
